SMILES strings stand for the structures.

The subject of the first data set is Cucumber (variety: SAGAMI HANPAKU). Nature of the data set: Phytotoxicity studied in the Botrytis cinerea foliage test. It counts as in vivo. The following applies: cucumber seedlings, foliar spray, 500 ppm. The procedure: Cucumber (variety: SAGAMI HANPAKU) was cultivated in a plastic pot of 4 cm diameter. A diluted solution of an active compound of the prescribed concentration, prepared in a similar manner as in the above-mentioned Test Example 1, was sprayed to seedlings reached to cotyledon in an amount of 6 ml per 2 pots. One day after the spraying, an inoculant, prepared by mixing a suspension of artificially cultured spores of Botrytis cinerea and agar gel (2×10^4 spores/ml gel), was placed on cotyledons to inoculate and infected in a moisture box kept at 20° C. Four days after the inoculation, the contraction rate per cotyledon was classified and evaluated according to the following standard to obtain the controlling value (%). Phytotoxicity was also studied at the same time. This test is an average of the results of 2 sections 4 cotyledons.
On to `COCc1c(F)ccc(Cc2nc(OC)cc(OC)n2)c1NS(=O)(=O)C(F)F` [Compound 14-40], for which the Phytotoxicity entry is “No phytotoxicity was observed”. On the same count and under the same terms, as for `COc1cc(OC)nc(Cc2ccccc2NS(=O)(=O)C(F)F)n1` [Compound 2-1], the entry is “No phytotoxicity was observed”; as for `COc1cc(OC)nc(C(O)c2ccccc2NS(=O)(=O)C(F)F)n1` (stereo not shown) [Compound 18-24], “No phytotoxicity was observed”; as for `COc1nc(OC)nc(C(=O)c2ccccc2NS(=O)(=O)C(F)F)n1` [Compound 9-48], “No phytotoxicity was observed”.

As for `COc1cc(OC)nc(C(O)c2cccc(F)c2NS(=O)(=O)C(F)F)n1` (stereo not shown) [Compound 18-25], the Phytotoxicity entry is listed as “No phytotoxicity was observed”. The same measure, in the same setting: next, `COc1cc(OC)nc(C(O)c2cccc(Cl)c2NS(=O)(=O)C(F)F)n1` (stereo not shown) [Compound 18-26]: “No phytotoxicity was observed”; `COc1cc(OC)nc(C(=O)c2cccc(Cl)c2NS(=O)(=O)C(F)F)n1` [Compound 9-26]: “No phytotoxicity was observed”; `COc1cc(OC)nc(Cc2cccc(F)c2N(C(C)=O)S(=O)(=O)C(F)F)n1` [Compound 2-18]: “No phytotoxicity was observed”. Still for that read-out and setting: as for `COc1cc(OC)nc(C(=O)c2cccc(F)c2NS(=O)(=O)C(F)F)n1` [Compound 9-25], the entry is “No phytotoxicity was observed”; as for `COc1cc(OC)nc(Cc2cc(C)cc(C)c2NS(=O)(=O)C(F)F)n1` [Compound 2-192], “No phytotoxicity was observed”. Still for that read-out and setting: next, `COc1cc(OC)nc(Cc2cccc(Cl)c2NS(=O)(=O)C(F)(F)F)n1` [Compound 14-20]: “No phytotoxicity was observed”; `COc1cc(OC)nc(Cc2cccc(Cl)c2N(C(=O)C2CC2)S(=O)(=O)C(F)F)n1` [Compound 2-191]: “No phytotoxicity was observed”. Regarding `COc1cc(OC)nc(C(SC)c2cccc(F)c2NS(=O)(=O)C(F)F)n1` (stereo not shown) [Compound 1-14], the Phytotoxicity result is on record as “No phytotoxicity was observed”. Still for that read-out and setting: as for `COc1cc(OC)nc(Cc2cccc(Cl)c2NS(=O)(=O)C(F)F)n1` [Compound 14-35], the entry is “No phytotoxicity was observed”.

On to `COc1cc(OC)nc(Cc2ccc(F)c(C)c2NS(=O)(=O)CC(F)(F)F)n1` [Compound 13-8], for which the Phytotoxicity result is reported as “No phytotoxicity was observed”. Still for that read-out and setting: as for `COc1cc(OC)nc(Cc2ccc(F)c(F)c2NS(=O)(=O)C(F)F)n1` [Compound 2-110], the entry is “No phytotoxicity was observed”.

On to `COc1cc(OC)nc(C(O)c2cccc(F)c2NS(=O)(=O)CC(F)(F)F)n1` (stereo not shown) [Compound 18-10], for which the Phytotoxicity result was “No phytotoxicity was observed”.

With `COc1cc(OC)nc(Cc2cccc(C)c2NS(=O)(=O)C(F)F)n1` [Compound 14-37], the Phytotoxicity result is on record as “No phytotoxicity was observed”. On the same count and under the same terms, as for `COc1cc(OC)nc(C(O)c2ccc(F)cc2NS(=O)(=O)C(F)F)n1` (racemic) [Compound 4-186], the entry is “No phytotoxicity was observed”; as for `COc1cc(OC)nc(C(O)c2ccc(C)c(C)c2NS(=O)(=O)C(F)F)n1` (racemic) [Compound 4-187], “No phytotoxicity was observed”; as for `COc1nc(OC)nc(C(O)c2cccc(F)c2NS(=O)(=O)C(F)F)n1` (stereo not shown) [Compound 18-51], “No phytotoxicity was observed”. On to `COc1cc(OC)nc(Cc2cccc(Cl)c2NS(=O)(=O)CC(F)(F)F)n1` [Compound 14-22], for which the Phytotoxicity entry is listed as “No phytotoxicity was observed”. The same measure, in the same setting: as for `COc1cc(OC)nc(Cc2ccccc2NS(=O)(=O)C(F)(F)F)n1` [Compound 14-2], the entry is “No phytotoxicity was observed”; as for `COc1cc(OC)nc(C(O)c2cc(C)cc(Cl)c2NS(=O)(=O)C(F)F)n1` (racemic) [Compound 4-130], “No phytotoxicity was observed”; as for `COc1cc(OC)nc(Cc2cccc(F)c2NS(=O)(=O)CCl)n1` [Compound 14-8], “No phytotoxicity was observed”.

For the compound `COc1cc(OC)nc(Cc2cccc(F)c2NS(=O)(=O)C(Cl)Cl)n1` [Compound 12-136], the Phytotoxicity result is “No phytotoxicity was observed”. On the same count and under the same terms, as for `COc1cc(OC)nc(C(O)c2ccccc2NS(=O)(=O)C(F)(F)F)n1` (stereo not shown) [Compound 18-20], the entry is “No phytotoxicity was observed”. In the case of `COc1cc(OC)nc(Cc2c(Cl)ccc(Cl)c2NS(=O)(=O)C(F)F)n1` [Compound 2-138], the Phytotoxicity entry is reported as “No phytotoxicity was observed”.

As for `COc1cc(OC)nc(C(O)c2cccc(F)c2NS(=O)(=O)CCl)n1` (stereo not shown) [Compound 18-6], the Phytotoxicity result was “No phytotoxicity was observed”. The same measure, in the same setting: next, `COc1cc(OC)nc(Cc2cccc(Cl)c2N(C(C)=O)S(=O)(=O)C(F)F)n1` [Compound 2-31]: “No phytotoxicity was observed”; `COc1cc(OC)nc(C(O)c2cc(C)cc(F)c2NS(=O)(=O)C(F)F)n1` (racemic) [Compound 4-107]: “No phytotoxicity was observed”.

A further data set deals with Paddy rice (variety: KOSIHIKARI).
Experiment: not given
The following applies: foliar spray, 500 ppm.
For the compound `COc1cc(OC)nc(C(O)c2ccccc2NS(=O)(=O)C(F)F)n1` (stereo not shown) [Compound 18-24], the Phytotoxicity result is given as “No phytotoxicity was observed”. For `COc1cc(OC)nc(Cc2cc(C)c(F)cc2NS(=O)(=O)C(F)F)n1` [Compound 2-190], the Phytotoxicity entry is “No phytotoxicity was observed”.

`COc1cc(OC)nc(C(O)c2ccc(F)c(C)c2NS(=O)(=O)C(F)F)n1` (racemic) [Compound 4-184]: the Phytotoxicity entry was “No phytotoxicity was observed”.

Regarding `COC(=O)N(c1c(Cl)cccc1Cc1nc(OC)cc(OC)n1)S(=O)(=O)C(F)F` [Compound 2-32], the Phytotoxicity entry is on record as “No phytotoxicity was observed”.

For the compound `COc1cc(OC)nc(Cc2ccc(F)cc2NS(=O)(=O)C(F)F)n1` [Compound 2-61], the Phytotoxicity result is listed as “No phytotoxicity was observed”. Turning to `COc1cc(OC)nc(Cc2cccc(Cl)c2N(C(=O)C2CC2)S(=O)(=O)C(F)F)n1` [Compound 2-191], the Phytotoxicity result is recorded as “No phytotoxicity was observed”. On the same count and under the same terms, as for `COc1cc(OC)nc(C(O)c2cc(C)cc(F)c2NS(=O)(=O)CC(F)(F)F)n1` (racemic) [Compound 12-131], the entry is “No phytotoxicity was observed”; as for `COc1nc(OC)nc(C(O)c2cccc(C)c2NS(=O)(=O)C(F)F)n1` (stereo not shown) [Compound 18-53], “No phytotoxicity was observed”. The same measure, in the same setting: as for `COc1cc(OC)nc(C(O)c2ccc(F)c(C)c2NS(=O)(=O)CC(F)(F)F)n1` (racemic) [Compound 12-137], the entry is “No phytotoxicity was observed”. The same measure, in the same setting: next, `COc1cc(OC)nc(C(=O)c2cccc(Cl)c2N(C(C)=O)S(=O)(=O)C(F)F)n1` [Compound 3-22]: “No phytotoxicity was observed”; `COc1cc(OC)nc(C(O)c2cccc(F)c2NS(=O)(=O)CC(F)(F)F)n1` (stereo not shown) [Compound 18-10]: “No phytotoxicity was observed”. For the compound `COc1cc(OC)nc(Cc2cccc(C)c2NS(=O)(=O)C(F)F)n1` [Compound 14-37], the Phytotoxicity entry is given as “No phytotoxicity was observed”.

Consider `COc1cc(OC)nc(Cc2cc(F)ccc2NS(=O)(=O)C(F)F)n1` [Compound 2-62], for which the Phytotoxicity result is “No phytotoxicity was observed”. The same measure, in the same setting: as for `COc1cc(OC)nc(C(O)c2cc(C)cc(Cl)c2NS(=O)(=O)C(F)F)n1` (racemic) [Compound 4-130], the entry is “No phytotoxicity was observed”; as for `COc1cc(OC)nc(Cc2cc(F)c(Cl)c(F)c2NS(=O)(=O)C(F)F)n1` [Compound 2-125], “No phytotoxicity was observed”.

For the compound `COc1cc(OC)nc(C(O)c2cccc(F)c2NS(=O)(=O)C(F)(F)F)n1` (stereo not shown) [Compound 18-21], the Phytotoxicity result is recorded as “No phytotoxicity was observed”.

As for `COc1cc(OC)nc(C(O)c2cccc(F)c2NS(=O)(=O)CCl)n1` (stereo not shown) [Compound 18-6], the Phytotoxicity entry was “No phytotoxicity was observed”. Same read-out and setting: as for `COc1cc(OC)nc(C(Cl)c2cccc(F)c2NS(=O)(=O)C(F)(F)F)n1` (stereo not shown) [Compound 12-127], the entry is “No phytotoxicity was observed”. Same read-out and setting: next, `COc1cc(OC)nc(Cc2cccc(Cl)c2N(C(C)=O)S(=O)(=O)C(F)F)n1` [Compound 2-31]: “No phytotoxicity was observed”; `COc1cc(OC)nc(C(O)c2cccc(F)c2NS(C)(=O)=O)n1` (stereo not shown) [Compound 18-2]: “No phytotoxicity was observed”. Still for that read-out and setting: next, `COc1cc(OC)nc(Cc2ccc(F)c(C)c2NS(=O)(=O)C(F)F)n1` [Compound 2-193]: “No phytotoxicity was observed”.

For the origin of these results see patent publication US8008484B2 (priority 2004, dated 2011).
